This note sets out measurements from ChEMBL document CHEMBL4334483, “STING modulators: Predictive significance in drug discovery” (Eur J Med Chem, 2019).

For one assay, the species on record is Homo sapiens. As to the kind of experiment: Selectivity index, ratio of EC50(app) for TBK1 in human PBMC […] in human PBMC.
Assay [1] deals with Stimulator of interferon genes protein (Homo sapiens, UniProt Q86WV6). As to the kind of experiment: Induction of STING in human PBMC assessed as increase in IFNbeta secretion.
Assay [2] deals with T1, Serine/threonine-protein kinase TBK1 (Homo sapiens, UniProt Q9UHD2).
T1 sequence (Q9UHD2 whole entry): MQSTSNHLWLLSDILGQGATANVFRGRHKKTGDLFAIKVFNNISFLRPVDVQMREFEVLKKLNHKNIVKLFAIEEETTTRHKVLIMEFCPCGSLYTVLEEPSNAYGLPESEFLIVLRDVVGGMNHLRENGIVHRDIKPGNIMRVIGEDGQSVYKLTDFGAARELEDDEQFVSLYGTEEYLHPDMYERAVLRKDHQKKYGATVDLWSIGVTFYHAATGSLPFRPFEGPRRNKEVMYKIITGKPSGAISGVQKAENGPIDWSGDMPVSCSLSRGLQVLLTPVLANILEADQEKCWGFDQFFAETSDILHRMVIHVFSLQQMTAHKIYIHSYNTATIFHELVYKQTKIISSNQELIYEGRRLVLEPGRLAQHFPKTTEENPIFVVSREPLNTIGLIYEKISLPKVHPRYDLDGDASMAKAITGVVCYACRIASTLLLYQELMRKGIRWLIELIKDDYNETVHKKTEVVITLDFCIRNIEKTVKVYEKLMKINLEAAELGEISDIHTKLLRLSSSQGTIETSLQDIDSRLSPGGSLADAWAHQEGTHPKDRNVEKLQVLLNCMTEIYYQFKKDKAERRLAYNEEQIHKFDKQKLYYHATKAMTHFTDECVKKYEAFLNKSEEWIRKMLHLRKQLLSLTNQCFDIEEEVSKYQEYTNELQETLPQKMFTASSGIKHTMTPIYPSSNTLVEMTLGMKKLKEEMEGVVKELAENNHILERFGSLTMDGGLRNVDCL
The assay can be described thus: Induction of TBK1 in human PBMC assessed as increase in […].

The nature of assay [3]: Inhibition of STING R232 mutant in mouse MEF cells assessed as increase in IFNbeta secretion.

pEC50, pIC50: −log10 of the molar value.

Stimulator of interferon genes protein, sequence (Q86WV6 whole entry): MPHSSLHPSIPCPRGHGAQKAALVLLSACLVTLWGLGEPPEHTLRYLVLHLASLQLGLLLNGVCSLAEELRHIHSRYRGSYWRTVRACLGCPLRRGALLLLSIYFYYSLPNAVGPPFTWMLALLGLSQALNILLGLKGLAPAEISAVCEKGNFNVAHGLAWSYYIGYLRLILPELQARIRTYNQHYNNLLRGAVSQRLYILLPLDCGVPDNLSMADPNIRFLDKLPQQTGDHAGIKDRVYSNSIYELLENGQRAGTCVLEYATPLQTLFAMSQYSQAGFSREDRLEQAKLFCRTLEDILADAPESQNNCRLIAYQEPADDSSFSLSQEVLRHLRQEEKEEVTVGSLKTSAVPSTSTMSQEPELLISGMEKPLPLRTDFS

Take `CCn1nc(C)cc1C(=O)/N=c1\[nH]c2cc(C(N)=O)ccc2n1CCCCn1/c(=N/C(=O)c2cc(C)nn2CC)[nH]c2cc(C(N)=O)ccc21`: in the assay listed under Homo sapiens, the Ratio EC50 was 18.
The pEC50 is the EC50 on a negative log10 scale, so that one unit is a factor of ten. Consider `CCn1nc(C)cc1C(=O)Nc1nc2cc(C(N)=O)ccc2n1CCCCn1c(NC(=O)c2cc(C)nn2CC)nc2cc(C(N)=O)ccc21`, for which the pEC50 is 5.51 in assay [1] and 4.27 in assay [2].
Usually pIC50 stands for the IC50 on a negative log10 scale, so that one unit is a factor of ten. As to `CC[C@@H]1NC(=O)[C@@H]2[C@H](Cl)[C@H](Cl)CN2C(=O)[C@H](CC)NC(=O)C[C@H](c2ccccc2)NC(=O)[C@H](CO)NC1=O`, the pIC50 in assay [3] is 5.47.
